Measured values: the NIST ThermoML archive (doi:10.1016/j.jct.2018.07.029)
“And” between values parts separate entries of the source, which are not always exact repeats. Equal values may be shown once.

Settings: Liquid, Transpiration method

CCOC(=O)C(C)O (racemic) [DL-ethyl lactate]
Settings | vapor or sublimation pressure
274.6 K | 0.0432 kPa
276.6 K | 0.0506 kPa
279.6 K | 0.0659 kPa
281.4 K | 0.0743 kPa
283.6 K | 0.0901 kPa
284.6 K | 0.095 kPa
285.8 K | 0.1032 kPa
287.6 K | 0.1266 kPa and 0.1265 kPa
288.4 K | 0.1302 kPa
290.2 K | 0.1492 kPa
290.3 K | 0.1456 kPa
291.1 K | 0.162 kPa
293.5 K | 0.1923 kPa
296.4 K | 0.2396 kPa
298.5 K | 0.2828 kPa
301.5 K | 0.3655 kPa
302.5 K | 0.3751 kPa
304.5 K | 0.4491 kPa
305.3 K | 0.4793 kPa
307.2 K | 0.5251 kPa
308.2 K | 0.5766 kPa
310.1 K | 0.6332 kPa and 0.6327 kPa
311.3 K | 0.6892 kPa

CCCCOC(=O)C(C)O (stereo not given) [butyl 2-hydroxypropanoate]
Settings | vapor or sublimation pressure [kPa]
273.6 K | 0.00576
274.1 K | 0.00627
276.6 K | 0.00823
277.2 K | 0.00868
279.2 K | 0.00996
280.7 K | 0.0112
281.8 K | 0.0133
283.2 K | 0.0141
285.4 K | 0.0178
287.3 K | 0.0215
290.3 K | 0.0272
291.8 K | 0.0324
293.3 K | 0.0375
296.2 K | 0.0442
299.2 K | 0.0601
302.2 K | 0.0712
305.1 K | 0.0952
308.1 K | 0.1148
308.5 K | 0.1253
311 K | 0.1483
313 K | 0.1639
314.5 K | 0.1944
317 K | 0.2271
318.9 K | 0.2521
322.9 K | 0.3526

CCOC(=O)[C@@H](C)O [ethyl D-lactate]
Settings | vapor or sublimation pressure
274.4 K | 0.0419 kPa
276.4 K | 0.0495 kPa
278.2 K | 0.0568 kPa
280.3 K | 0.0665 kPa
282.3 K | 0.0765 kPa
283.2 K | 0.0834 kPa
285.4 K | 0.0995 kPa
286.2 K | 0.1081 kPa
289.2 K | 0.1358 kPa
291.3 K | 0.1583 kPa
293.2 K | 0.1868 kPa
295.2 K | 0.2114 kPa
297.3 K | 0.2551 kPa
298.4 K | 0.2762 kPa and 0.2718 kPa
299.2 K | 0.2886 kPa
301.3 K | 0.3466 kPa
303.2 K | 0.3937 kPa
305.2 K | 0.4603 kPa
306.2 K | 0.479 kPa
307.3 K | 0.5225 kPa
308.2 K | 0.5581 kPa
308.3 K | 0.5768 kPa
310.3 K | 0.6462 kPa
311.3 K | 0.7011 kPa
313.2 K | 0.7624 kPa
314.2 K | 0.8127 kPa
316.3 K | 0.9517 kPa
318.2 K | 1.048 kPa

CC(C)OC(=O)[C@H](C)O [isopropyl (S)-2-hydroxypropionate]
Settings | vapor or sublimation pressure [kPa]
283.4 K | 0.0862
288.3 K | 0.1239
293.3 K | 0.1774
298.3 K | 0.2401
303.2 K | 0.3239
306.8 K | 0.4055

CCCCCOC(=O)C(C)O (stereo not given) [pentyl 2-hydroxypropanoate]
Settings | vapor or sublimation pressure [kPa]
303.4 K | 0.026
305.3 K | 0.0299
307.3 K | 0.038
309.3 K | 0.0421
311.4 K | 0.0517
313.3 K | 0.0565
315.4 K | 0.0714
317.4 K | 0.0833
319.4 K | 0.0946
321.4 K | 0.1069
323.4 K | 0.1269
325.4 K | 0.1418
327.4 K | 0.1665
329.4 K | 0.1855
331.3 K | 0.2174
333.3 K | 0.2476
335.3 K | 0.2794
337.3 K | 0.3145
339.3 K | 0.3534
341.3 K | 0.4164
343.2 K | 0.4684

CCCOC(=O)C(C)O (stereo not given) [propyl 2-hydroxypropanoate]
Settings | vapor or sublimation pressure
273.5 K | 0.0152 kPa
274.6 K | 0.0171 kPa
276.2 K | 0.019 kPa
277.7 K | 0.0222 kPa
279.9 K | 0.0274 kPa
282.1 K | 0.0332 kPa
283.3 K | 0.0359 kPa
286.2 K | 0.0489 kPa and 0.048 kPa
287.8 K | 0.055 kPa
290.3 K | 0.0664 kPa
292.3 K | 0.0793 kPa
294.3 K | 0.09 kPa
298.2 K | 0.1194 kPa
299.2 K | 0.1376 kPa and 0.1392 kPa
301.2 K | 0.1565 kPa
301.4 K | 0.1625 kPa
303.3 K | 0.1866 kPa
304.2 K | 0.1915 kPa
305.3 K | 0.2068 kPa
307.9 K | 0.268 kPa
308.1 K | 0.256 kPa
310.3 K | 0.3053 kPa
312.1 K | 0.3377 kPa
313.4 K | 0.3713 kPa
313.6 K | 0.3614 kPa
315.4 K | 0.4264 kPa
316 K | 0.4342 kPa
317 K | 0.4541 kPa
317.4 K | 0.4789 kPa
319.4 K | 0.5467 kPa
320 K | 0.5661 kPa
321.4 K | 0.6113 kPa
323 K | 0.6633 kPa
323.4 K | 0.7043 kPa
325.4 K | 0.8342 kPa
327.3 K | 0.9235 kPa
330.3 K | 1.079 kPa
